According to PMC7403393 (Scientific Reports, 2020):
Where a name gives a salt, the structure may show the parent alone. Read-outs that look alike come from different tables or passages of the source.

How the values were obtained:
[1] = system: SARS-CoV-2; test: EC50/EC90 determination by quantification of viral genome (real-time RT-PCR) in VeroE6 cells; type: cell-based, SARS-CoV-2 strain BavPat1; details: for activity at 40 µM: VeroE6, 40 µM
[2] = in vitro; details: African green monkey
[3] = system: SARS-CoV-2
[4] = system: VeroE6 cells; details: VeroE6, no virus, CellTiter Blue
[5] = system: SARS-CoV-2; design: method as in earlier work; details: cited from earlier work
[6] = system: SARS-CoV-2; details: 5 and 10 µM
[7] = system: VeroE6 cells; design: method as in PMID 29642580; details: cited from earlier work
[8] = system: SARS-CoV-2; test: microbe, parasite or virus in culture; details: Severe acute respiratory syndrome coronavirus 2, Vero C1008, read-out: cell viability
[9] = system: SARS-CoV-2; test: microbe, parasite or virus in culture; details: Severe acute respiratory syndrome coronavirus 2, Caco-2, read-out: replication inhibition
[10] = Severe acute respiratory syndrome coronavirus 2, Vero C1008, 48 h
[11] = Severe acute respiratory syndrome coronavirus 2, Vero C1008, 48 h, VeroE6, viral RNA by RT-qPCR, 2 days
[12] = selectivity index CC50/EC50, VeroE6
[13] = VeroE6, viral RNA by RT-qPCR, 2 days, read-out: EC50
[14] = VeroE6, viral RNA by RT-qPCR, 2 days, read-out: EC90
[15] = 10 µM compound, VeroE6, MOI 0.002, 3 days after infection, normalized cell viability relative to 10 µM arbidol
[16] = Severe acute respiratory syndrome coronavirus 2, Vero C1008, 48 h, VeroE6, viral RNA by RT-qPCR, 2 days, read-out: EC50
[17] = Severe acute respiratory syndrome coronavirus 2, Vero C1008, 48 h, VeroE6, viral RNA by RT-qPCR, 2 days, read-out: EC90

## CCCCC[C@H](O)/C=C/[C@H]1[C@H](O)CC(=O)[C@@H]1CCCCCCC(=O)O [Alprostadil]
[1]; [10]
  EC90: > 40 µM
[1]; [11]
  EC50: 5.39 µM
[1]; [12]
  SI: > 7.4
[2]; VeroE6 cells (no virus)
  CC50 at 2 days: > 40 µM

## Cl.Clc1ccc(Cn2c(CN3CCCC3)nc3ccccc32)cc1 [Clemizole hydrochloride]
[1]; [13]
  EC50: 23.9 µM
[1]; [14]
  EC90: 38.2 µM
[1]; [12]
  SI: > 1.7
[3]; [15]
  Inhibition index: 1.01
[4]
  CC50: > 40 µM

## CCN(CC)CCCC(C)Nc1ccnc2cc(Cl)ccc12 (centres unmarked) [Chloroquine diphosphate]
[3]; [15]
  Inhibition index: 1.35

## CC[C@H]1OC(=O)[C@H](C)[C@@H](O[C@H]2C[C@@](C)(OC)[C@@H](O)[C@H](C)O2)[C@H](C)[C@@H](O[C@@H]2O[C@H](C)C[C@H](N(C)C)[C@H]2O)[C@](C)(O)C[C@@H](C)CN(C)[C@H](C)[C@@H](O)[C@]1(C)O [Azithromycine]
[1]; [16]
  EC50: 2.12 µM
[1]; [17]
  EC90: 8.65 µM
[1]; [12]
  SI: > 19
[5]
  antiviral effect in a macaque model: no antiviral effect
[2]; VeroE6 cells (no virus)
  CC50 at 2 days: > 40 µM

## CC(C)CN(C[C@@H](O)[C@H](Cc1ccccc1)NC(=O)O[C@H]1CO[C@H]2OCC[C@H]21)S(=O)(=O)c1ccc(N)cc1 [Darunavir]
[1]; [16]
  EC50: ≥ 40 µM

## CCN(CCO)CCCC(C)Nc1ccnc2cc(Cl)ccc12 (centres unmarked) [Hydroxychloroquine sulfate]
[1]; [16]
  EC50: 4.17 µM
[1]; [17]
  EC90: 25.5 µM
[5]
  antiviral effect in a macaque model: no antiviral effect
[2]
  CC50 at 2 days: > 40 µM

## CC(C)(C)NC[C@H](O)c1ccc(O)c(CO)c1 [Levalbuterol]
[1]; [16]
  EC50: ≥ 40 µM

## COc1ccc(CC(C)NCC(O)c2ccc(O)c(NC=O)c2)cc1 (centres unmarked) [Formoterole]
[1]; [13]
  EC50: ≥ 40 µM

## CC(=O)[C@H]1CC[C@H]2[C@@H]3CC=C4C[C@@H](O)CC[C@]4(C)[C@H]3CC[C@]12C [Pregnenolone]
[3]; [15]
  Inhibition index: 1.66

## CCCc1nc(C(C)(C)O)c(C(=O)O)n1Cc1ccc(-c2ccccc2-c2nnn[nH]2)cc1 [Olmesartan]
[1]; [16]
  EC50: ≥ 40 µM
[1]
  activity at 40 µM: lack of activity

## C[C@@H]1CCO[C@H]2Cn3cc(C(=O)NCc4ccc(F)cc4F)c(=O)c(O)c3C(=O)N12 [Dolutegravir]
[1]; [10]
  EC90: > 40 µM
[1]; [16]
  EC50: 22 µM
[1]; [12]
  SI: > 1.8
[2]; VeroE6 cells (no virus)
  CC50 at 2 days: > 40 µM

## COc1ncnc(NS(=O)(=O)c2ccc(N)cc2)c1OC [Sulfadoxine]
[1]; [10]
  EC90: > 40 µM
[1]; [11]
  EC50: > 30 µM
[1]; [13]
  EC50: 35.4 µM
[1]; [12]
  SI: > 1.13
[6]
  antiviral effect in Caco-2 cells (in words): Arbidol-like result
[2]
  CC50 at 2 days: > 40 µM

## OCCN1CCN(CCCN2c3ccccc3C=Cc3ccccc32)CC1 [Opipramol dihydrochloride]
[1]; [16]
  EC50: 5.05 µM
[1]; [17]
  EC90: 5.97 µM
[1]; [12]
  SI: > 7.9
[3]; [15]
  Inhibition index: 1.05
[2]; VeroE6 cells (no virus)
  CC50 at 2 days: > 40 µM

## C=CCOc1ccccc1OCC(O)CNC(C)C (centres unmarked) [Oxprenolol hydrochloride]
[1]; [16]
  EC50: 20.2 µM
[1]; [17]
  EC90: > 40 µM
[1]; [12]
  SI: > 2
[2]; VeroE6 cells (no virus)
  CC50 at 2 days: > 40 µM

## CCCCOc1ccc(C(=O)CCN2CCCCC2)cc1 [Dyclonine hydrochloride]
[1]; [16]
  EC50: 10 µM
[1]; [17]
  EC90: > 40 µM
[1]; [12]
  SI: > 4
[6]
  antiviral effect in Caco-2 cells (in words): Arbidol-like result
[2]; VeroE6 cells (no virus)
  CC50 at 2 days: > 40 µM

## Nc1c2c(nc3ccccc13)CCCC2 [Tacrine hydrochloride]
[3]; [15]
  Inhibition index: 1.44

## Cn1nnnc1SCC1=C(C(=O)O)N2C(=O)[C@@H](NC(=O)[C@H](O)c3ccccc3)[C@H]2SC1 [Cefamandole]
[1]; [16]
  EC50: ≥ 40 µM

## CCOc1nc2cccc(C(=O)O)c2n1Cc1ccc(-c2ccccc2-c2nnn[nH]2)cc1 [Candesartan]
[1]
  activity at 40 µM: lack of activity

## CNCC(O)c1ccc(OC(=O)C(C)(C)C)c(OC(=O)C(C)(C)C)c1 (centres unmarked) [Dipivefrin hydrochloride]
[3]; [15]
  Inhibition index: 1.01

## COC(c1ccccc1)(c1ccccc1)[C@H](Oc1nc(C)cc(C)n1)C(=O)O [Ambrisentan]
[1]; [16]
  EC50: ≥ 40 µM
[1]
  activity at 40 µM: lack of activity

## C[C@]12CC[C@H](O)C[C@@H]1CC[C@@H]1[C@@H]2CC[C@]2(C)C(=O)CC[C@@H]12 [Epiandrosterone]
[3]; [15]
  Inhibition index: 1.07

## CCCCOc1cc(C(=O)OCCN(CC)CC)ccc1N [Benoxinate hydrochloride]
[3]; [15]
  Inhibition index: 1.19

## C=C[C@H]1C[N@@]2CC[C@H]1C[C@@H]2[C@@H](O)c1ccnc2ccc(OC)cc12 [Quinidine hydrochloride]
[1]
  SI: > 7.8
[1]; [16]
  EC50: 5.11 µM
[1]; [17]
  EC90: > 40 µM
[2]; VeroE6 cells (no virus)
  CC50 at 2 days: > 40 µM

## O=C([O-])c1ccccc1-c1c2cc(Br)c(=O)cc-2oc2[c]([Hg+])c([O-])c(Br)cc12.[Na+].[Na+].[OH-] [Merbromin disodium salt]
[3]
  Inhibition index: 1.12

## Spiramycin
[1]
  SI: > 5
[1]; [13]
  EC50: 7.95 µM
[1]; [14]
  EC90: 10.5 µM
[4]
  CC50: > 40 µM

## CN(C)CCCN1c2ccccc2Sc2ccccc21 [Promazine hydrochloride]
[3]; [15]
  Inhibition index: 1.16

## O=C(CCCN1CCC2(CC1)C(=O)NCN2c1ccccc1)c1ccc(F)cc1 [Spiperone]
[1]; [17]
  EC90: 13.1 µM
[2]
  CC50 at 2 days: > 40 µM

## CN1CCN2c3ncccc3Cc3ccccc3C2C1 (centres unmarked) [Mirtazapine]
[3]; [15]
  Inhibition index: 1.03

## CNCc1cc(-c2ccccc2F)n(S(=O)(=O)c2cccnc2)c1 [Vonoprazan]
[1]; [10]
  EC90: > 40 µM
[1]; [11]
  EC50: > 30 µM
[1]; [13]
  EC50: 38.6 µM
[1]; [12]
  SI: > 1
[2]
  CC50 at 2 days: > 40 µM

## C=C1C[C@@H]2[C@H](CC[C@]3(C)C(=O)CC[C@@H]23)[C@@]2(C)C=CC(=O)C=C12 [Exemestane]
[1]; [10]
  EC90: 9.86 µM
[1]; [11]
  EC50: 7.51 µM
[3]; [15]
  Inhibition index: 1.10
[6]
  antiviral effect in Caco-2 cells (in words): Arbidol-like result
[2]
  CC50 at 2 days: > 40 µM

## CCOC(=O)c1c(CSc2ccccc2)n(C)c2cc(Br)c(O)c(CN(C)C)c12 [Arbidol]
[1]; [16]
  EC50: 10.7 µM
[1]; [17]
  EC90: 15.2 µM
[1]; [12]
  SI: > 3.7
[6]
  antiviral effect in Caco-2 cells (in words): weaker than the one observed in VeroE6
[7]
  CC50: > 40 µM
[8]
  viability at 10 µM: 70 to 90%

## COc1ccccc1OCC(O)CN1CCN(CC(=O)Nc2c(C)cccc2C)CC1 (centres unmarked) [Ranolazine]
[1]; [16]
  EC50: ≥ 40 µM

## COc1ccc2[nH]c([S+]([O-])Cc3ncc(C)c(OC)c3C)nc2c1 (centres unmarked) [Omeprazole]
[1]; [16]
  EC50: 17.1 µM
[1]; [17]
  EC90: 38 µM
[2]; VeroE6 cells (no virus)
  CC50 at 2 days: > 40 µM

## CCC(CC)COC(=O)[C@H](C)N[P@](=O)(OC[C@H]1O[C@@](C#N)(c2ccc3c(N)ncnn23)[C@H](O)[C@@H]1O)Oc1ccccc1 [Remdesivir]
[9]
  inhibition at 5 µM: 100%
  inhibition at 10 µM: 100%
